In patent US20030157146A1, “Stimulation of the immune system with polydextrose” (priority 2002, published 2003):

Legend:
biogenic amines = biogenic amines from caecal digesta of rats (HPLC, dansyl derivatives); format: in vivo, Wistar rats; conditions: rat caecal digesta, Example 3
Experimental: Four week old male Wistar rats, divided into a control group and three test groups, consisting of 12 rats in each group, were held at a controlled temperature (27+2° C.) and 12:12 hrs light cycle. The animals had free access to food and water. The animals were weighed once a week and their weight gain was calculated. The control group was fed four weeks with a control (basal) diet and the test group was fed four weeks with the PDX-Polyol-diet, which consisted the control (basal) diet supplemented by an immunostimulating amount of polydextrose, and polyol as described in more detail below.
The control diet was the same diet as defined in Example 1. and the PDX-Polyol-diet was the same as defined in Example 2.
The digesta samples from caecum and colon were divided into pools (3 animals per pool) for the analysis of biogenic amines. The samples were stored in −20° C. until analysed. PH was measured from the caecum in situ.
Biogenic amines were determined from caecal digesta samples. […] The derivatives were separated on a C18 reversed phase column using mixture of ammonium acetate and acetonitrile as eluent, and detected with fluorescence detector.
(§1) The in vivo test of Example 2 and the in vitro fermentation of Example 3 were repeated and the level of tyramine was measured.

[1] = laxative effect in the test animals; parameters: species or system Wistar rats; conditions: in vivo
Experimental: Four week old male Wistar rats, divided into a control group and three test groups, consisting of 12 rats in each group, were held at a controlled temperature (27±2° C.) and 12:12 hrs light cycle. The animals had free access to food and water. The animals were weighed once a week and their weight gain was calculated. The control group was fed four weeks with a control (basal) diet and the test group was fed four weeks with the PDX-Polyol-diet, which consisted the control (basal) diet supplemented by an immunostimulating amount of polydextrose, and polyol as described in more detail below.
as §1

human fecal samples = assay: 24 h batch fermentation with human fecal samples: production of SCFA; format: cell-based; conditions: 1% of each substance, 37° C., pH 6.9, anaerobic
Experimental: The test was based on a 24 h fermentation experiment performed with human fecal samples. Fecal samples were incubated in 24-hour batch cultures at 37° C. at pH 6.9 under anaerobic conditions containing a buffer medium (mineral salt, trace elements, vitamines). The medium was supplemented with 10% extract of caecal digesta from pig. Polydextrose, polyols and their combinations were added at the level of 1% each into the test cultures.

Compound | amount of tyramine compared to a control diet (biogenic amines) | laxative effect [1] | 2-metbutyric acid, production of SCFA (%) after 24 h fermentation (human fecal samples) | Acetic acid, production of SCFA (%) after 24 h fermentation (human fecal samples) | Butyric acid, production of SCFA (%) after 24 h fermentation (human fecal samples) | Isobutyric acid, production of SCFA (%) after 24 h fermentation (human fecal samples) | Isovaleric acid, production of SCFA (%) after 24 h fermentation (human fecal samples) | Propionic acid, production of SCFA (%) after 24 h fermentation (human fecal samples) | Total SCFA after 24 h fermentation (human fecal samples) | Valeric acid, production of SCFA (%) after 24 h fermentation (human fecal samples)
OC[C@@H](O)[C@@H](O[C@@H]1O[C@H](CO)[C@H](O)[C@H](O)[C@H]1O)[C@H](O)[C@@H](O)CO [Lactitol, lactitol] | reduced | laxative effect | 0.2% | 66.2% | 31.1% | 0.4% | 0.2% | 9.3% | 153.6 mmol/L | 0.9%
OC[C@@H](O)[C@@H](O[C@H]1O[C@H](CO)[C@@H](O)[C@H](O)[C@H]1O)[C@H](O)[C@@H](O)CO [Maltitol, maltitol] | – | – | 0.2% | 57.9% | 21.3% | 0.4% | 0.2% | 12.1% | 157.0 mmol/L | 1.2%
OC[C@@H](O)[C@@H](O)[C@H](O)[C@@H](O)CO [Sorbitol, sorbitol] | – | – | 0.2% | 55.2% | 38.6% | 0.5% | 0.3% | 11.4% | 122.4 mmol/L | 1.4%
OC[C@@H](O)[C@H](O)[C@@H](O)CO [Xylitol, xylitol] | – | – | 0.3% | 45.8% | 27.9% | 0.6% | 0.3% | 12.6% | 191.6 mmol/L | 1.9%
isomalt | – | – | 0.2% | 64.0% | – | 0.4% | 0.2% | 12.8% | 158.6 mmol/L | 1.2%
